Pest or weed control data for six compounds are collected here from patent US20110086759A1, “CHEMICAL COMPOUNDS” (SYNGENTA CROP PROTECTION, INC., priority 2007, published 2011).

What all share (format): in vivo
Assay [1] deals with Ipomea hederaceae (IPOHE). As to the kind of experiment: Pre-emergence biological efficacy, glasshouse pot test. To be noted: Ipomoea hederacea, 312 h. The method in brief:
(§1)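 Scores on a 0–100 damage scale were taken 13 days after spraying. Application rate 1000 or 250 g/ha, one day after sowing, in acetone/water-based aqueous spray containing 0.5% Tween 20.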

Assay [2] has as its system Setaria faberi (SETFA). The description is as above. To be noted: 312 h. Summed up: as §1
Assay [3] concerns Echinochloa crus-galli (ECHCG). Described as above. The conditions noted are these: 312 h. Summed up:
as §1

The test system of assay [4] is Solanum nigrum (SOLNI). The assay is described as above. The conditions noted are these: 312 h. Summed up: as §1
In assay [5] the test system is Amaranthus retoflexus (AMARE). The assay is described as above. To be noted: Amaranthus retroflexus, 312 h. Summed up:
as §1

Assay [6] has as its system Alopecurus myosuroides (ALOMY). The description is as above. The conditions noted are these: 312 h. Summed up: as §1
In assay [7] the test system is Ipomea hederaceae (IPOHE). Kind of assay: Post-emergence biological efficacy, glasshouse pot test. To be noted: Ipomoea hederacea, 312 h. The protocol: (§2) Seeds of Alopecurus myosuroides (ALOMY), Setaria faberi (SETFA), Echinochloa crus-galli (ECHCG), Solanum nigrum (SOLNI), Amaranthus retoflexus (AMARE) and Ipomea hederaceae (IPOHE) were sown in standard soil in pots. After cultivation for 8 days under controlled conditions in a glasshouse (at 24/16° C., day/night; 14 hours light; 65% humidity), the plants were sprayed with an aqueous spray solution derived from the formulation of the technical active ingredient in acetone/water (50:50) solution containing 0.5% Tween 20 (polyoxyethelyene sorbitan monolaurate, CAS RN 9005-64-5) to give a final dose of 1000 or 250 g/ha of test compound.
(§3) The test plants were then grown on under controlled conditions in a glasshouse (at 24/16° C., day/night; 14 hours light; 65% humidity) and watered twice daily. After 13 days the test was evaluated (100=total damage to plant; 0=no damage to plant).

Assay [8] has as its system Setaria faberi (SETFA). Described as above. To be noted: 312 h. The protocol: as §2, §3
Assay [9] has as its system Echinochloa crus-galli (ECHCG). The description is as above. The conditions noted are these: 312 h. The protocol:
as §2, §3

Assay [10] has as its system Solanum nigrum (SOLNI). The assay is described as above. To be noted: 312 h. The protocol: as §2, §3
Assay [11] concerns Amaranthus retoflexus (AMARE). The description is as above. The conditions noted are these: Amaranthus retroflexus, 312 h. The protocol: as §2, §3
Assay [12] concerns Alopecurus myosuroides (ALOMY). The assay is described as above. The conditions noted are these: 312 h. The protocol: as §2, §3
Setting [13] is: pre-emergence, 1,000 g/ha, evaluated after 13 days (100=total damage; 0=no damage), read-out: Percentage damage IPOHE.
[14] abbreviates: pre-emergence, 1,000 g/ha, evaluated after 13 days (100=total damage; 0=no damage), read-out: Percentage damage SETFA.
[15] abbreviates: pre-emergence, 1,000 g/ha, evaluated after 13 days (100=total damage; 0=no damage), read-out: Percentage damage ECHCG.
Where [16] appears, read: pre-emergence, 1,000 g/ha, evaluated after 13 days (100=total damage; 0=no damage), read-out: Percentage damage SOLNI.
Where [17] appears, read: pre-emergence, 1,000 g/ha, evaluated after 13 days (100=total damage; 0=no damage), read-out: Percentage damage AMARE.
Where [18] appears, read: pre-emergence, 1,000 g/ha, evaluated after 13 days (100=total damage; 0=no damage), read-out: Percentage damage ALOMY.
Where [19] appears, read: post-emergence, 1,000 g/ha, evaluated after 13 days (100=total damage; 0=no damage), read-out: Percentage damage caused to weed species, IPOHE.
The mark [20] stands for this setting: post-emergence, 1,000 g/ha, evaluated after 13 days (100=total damage; 0=no damage), read-out: Percentage damage caused to weed species, SETFA.
[21] abbreviates: post-emergence, 1,000 g/ha, evaluated after 13 days (100=total damage; 0=no damage), read-out: Percentage damage caused to weed species, ECHCG.
[22] abbreviates: post-emergence, 1,000 g/ha, evaluated after 13 days (100=total damage; 0=no damage), read-out: Percentage damage caused to weed species, SOLNI.
Where [23] appears, read: post-emergence, 1,000 g/ha, evaluated after 13 days (100=total damage; 0=no damage), read-out: Percentage damage caused to weed species, AMARE.
The mark [24] stands for this setting: post-emergence, 1,000 g/ha, evaluated after 13 days (100=total damage; 0=no damage), read-out: Percentage damage caused to weed species, ALOMY.
The mark [25] stands for this setting: pre-emergence, rate 1,000 g/ha, evaluated after 13 days (100=total damage to plant; 0=no damage), read-out: Percentage damage caused to weed species, IPOHE.
Setting [26] is: pre-emergence, rate 1,000 g/ha, evaluated after 13 days (100=total damage to plant; 0=no damage), read-out: Percentage damage caused to weed species, SETFA.
The mark [27] stands for this setting: pre-emergence, rate 1,000 g/ha, evaluated after 13 days (100=total damage to plant; 0=no damage), read-out: Percentage damage caused to weed species, ECHCG.
Setting [28] is: pre-emergence, rate 1,000 g/ha, evaluated after 13 days (100=total damage to plant; 0=no damage), read-out: Percentage damage caused to weed species, SOLNI.
[29] abbreviates: pre-emergence, rate 1,000 g/ha, evaluated after 13 days (100=total damage to plant; 0=no damage), read-out: Percentage damage caused to weed species, AMARE.
Setting [30] is: pre-emergence, rate 1,000 g/ha, evaluated after 13 days (100=total damage to plant; 0=no damage), read-out: Percentage damage caused to weed species, ALOMY.
[31] abbreviates: Rate 1,000 g/ha, post-emergence spray, evaluated after 13 days (100=total damage to plant; 0=no damage to plant), read-out: Percentage damage caused to weed species, post-emergence, IPOHE.
The mark [32] stands for this setting: Rate 1,000 g/ha, post-emergence spray, evaluated after 13 days (100=total damage to plant; 0=no damage to plant), read-out: Percentage damage caused to weed species, post-emergence, SETFA.
[33] abbreviates: Rate 1,000 g/ha, post-emergence spray, evaluated after 13 days (100=total damage to plant; 0=no damage to plant), read-out: Percentage damage caused to weed species, post-emergence, ECHCG.
The mark [34] stands for this setting: Rate 1,000 g/ha, post-emergence spray, evaluated after 13 days (100=total damage to plant; 0=no damage to plant), read-out: Percentage damage caused to weed species, post-emergence, SOLNI.
[35] abbreviates: Rate 1,000 g/ha, post-emergence spray, evaluated after 13 days (100=total damage to plant; 0=no damage to plant), read-out: Percentage damage caused to weed species, post-emergence, AMARE.
The mark [36] stands for this setting: Rate 1,000 g/ha, post-emergence spray, evaluated after 13 days (100=total damage to plant; 0=no damage to plant), read-out: Percentage damage caused to weed species, post-emergence, ALOMY.

As for `COC(=O)c1nc(C2CC2)nc(N[C@@H](Cc2cccc(C(F)(F)F)c2)C(=O)OC)c1Cl` [4-286 (S), 5-Chloro-2-cyclopropyl-6-methoxycarbonyl-4-[(1S)-1-methoxy-carbonyl-2-(3-trifluoromethyl-phenyl)-ethylamino]-pyrimidine], the pest or weed control at 1000 g/ha in assay [1] (setting [13]) worked out at 100%; in assay [2] (setting [14]), 20%; in [3] (setting [15]) it was 20%; in assay [4] (setting [16]), 80%; in assay [5] (setting [17]), 90%; in assay [6] (setting [18]), 10%. The pest or weed control at 1000 g/ha in assay [7] (setting [19]) came out at 50%; in assay [8] (setting [20]), 20%; in assay [9] (setting [21]), 10%; in assay [10] (setting [22]), 80%; in [11] (setting [23]), 100%; in [12] (setting [24]), 10%.
Turning to `COC(=O)c1nc(C2CC2)nc(N[C@@H](Cc2ccc(O)cc2)C(=O)OC)c1Cl` [4-287 (S), 5-Chloro-2-cyclopropyl-4-[(1S)-2-(4-hydroxyphenyl)-1-methoxycarbonyl-ethylamino]-6-methoxycarbonyl-pyrimidine], the pest or weed control at 1000 g/ha was found to be 80% in assay [1] (setting [13]); 20% in assay [2] (setting [14]); 10% in assay [3] (setting [15]); 80% in assay [4] (setting [16]); 80% in [5] (setting [17]); 20% in [6] (setting [18]). Moreover, the pest or weed control at 1000 g/ha in assay [7] (setting [19]) is 70%; in assay [8] (setting [20]) it was 40%; in [9] (setting [21]) it was 60%; in [10] (setting [22]), 80%; in assay [11] (setting [23]), 100%; in assay [12] (setting [24]) it was 20%.
With `COC(=O)c1nc(C2CC2)nc(N[C@@H](Cc2ccc(OC(C)(C)C)cc2)C(=O)OC)c1Cl` [4-288 (S), 4-[(1S)-2-(4-^tButoxyphenyl)-1-methoxycarbonyl-ethylamino]-5-chloro-2-cyclopropyl-6-methoxycarbonyl-pyrimidine], the pest or weed control at 1000 g/ha in assay [1] (setting [13]) was found to be 60%; in assay [2] (setting [14]), 0%; in assay [3] (setting [15]), 0%; in assay [4] (setting [16]) it was 40%; in [5] (setting [17]), 80%; in assay [6] (setting [18]) it was 0%. Further, the pest or weed control at 1000 g/ha in [7] (setting [19]) was 50%; in assay [8] (setting [20]), 10%; in [9] (setting [21]), 0%; in assay [10] (setting [22]) it was 80%; in [11] (setting [23]) it was 80%; in [12] (setting [24]), 10%.
`CCOC(=O)[C@H](CSc1ccccc1)Nc1nc(C2CC2)nc(C(=O)OC)c1Cl` [4-292 (R), 5-Chloro-2-cyclopropyl-4-[(1R)-1-ethoxycarbonyl-2-phenylthio-ethylamino]-6-methoxycarbonyl-pyrimidine]: the pest or weed control at 1000 g/ha in assay [1] (setting [13]) is 100%; in assay [2] (setting [14]) it was 10%; in assay [3] (setting [15]) it was 20%; in assay [4] (setting [16]), 80%; in [5] (setting [17]), 100%; in assay [6] (setting [18]), 20%. For the same compound, the pest or weed control at 1000 g/ha in assay [7] (setting [19]) was 60%; in [8] (setting [20]) it was 50%; in assay [9] (setting [21]), 30%; in assay [10] (setting [22]), 70%; in assay [11] (setting [23]), 100%; in assay [12] (setting [24]) it was 20%.
With `COC(=O)c1nc(C2CC2)nc(N[C@@H](Cc2ccccc2)C(=O)OC(C)(C)C)c1Cl` [4-293 (S), 4-[(1S)-1-^tButoxycarbonyl-2-phenyl-ethylamino]-5-chloro-2-cyclopropyl-6-methoxycarbonyl-pyrimidine], the pest or weed control at 1000 g/ha in assay [1] (setting [25]) was found to be 60%; in assay [2] (setting [26]), 0%; in assay [3] (setting [27]) it was 20%; in assay [4] (setting [28]), 50%; in assay [5] (setting [29]), 40%; in assay [6] (setting [30]), 10%. For the same compound, the pest or weed control at 1000 g/ha was found to be 80% in [7] (setting [31]); 40% in [8] (setting [32]); 20% in assay [9] (setting [33]); 80% in assay [10] (setting [34]); 100% in [11] (setting [35]); 10% in [12] (setting [36]).
Take `COC(=O)c1nc(C2CC2)nc(N(C)[C@@H](Cc2ccccc2)C(=O)OC)c1Cl` [5-283 (S), 5-Chloro-2-cyclopropyl-6-methoxycarbonyl-4-{N-[(1S)-1-methoxycarbonyl-2-phenyl-ethyl]-N-methyl-amino}-pyrimidine]: the pest or weed control at 1000 g/ha in assay [1] (setting [25]) stood at 30%; in assay [2] (setting [26]) it was 0%; in [3] (setting [27]), 0%; in [4] (setting [28]), 40%; in [5] (setting [29]), 80%; in [6] (setting [30]), 0%. Moreover, the pest or weed control at 1000 g/ha in [7] (setting [31]) worked out at 50%; in assay [8] (setting [32]) it was 40%; in assay [9] (setting [33]) it was 10%; in [10] (setting [34]) it was 70%; in [11] (setting [35]) it was 100%; in assay [12] (setting [36]), 10%.
